Key:
[1] = tested on: human liver cancer HepG2 cells; assay: In vivo pharmacodynamics, liver cancer HepG2 CDX model; parameters: species or system BALB/c nude mice; conditions: for Tumor volume (x ± S): in mm³ (unit assumed); for Tumor volume: 10 mg/kg i.v.
Experimental: Experiment Instruction: BALB/c nude mice were subcutaneously inoculated with human liver cancer HepG2 cells to establish a subcutaneous transplantation tumor model of human liver cancer. […] The efficacy was evaluated according to the relative tumor inhibition rate TGI (%), and the safety was evaluated according to the change in body weight and the death of the animals.

[2] = tested on: HuPrime model LU0884 human lung cancer; assay: In vivo pharmacodynamics, lung cancer LU0884 PDX model; parameters: species or system BALB/c nude mice; conditions: for T/C (%) / TGI (%) / Relative tumor volume (x ± S) / Tumor volume (x ± S): QWx3, i.v.; for Relative tumor volume (x ± S) / Tumor volume (x ± S): mean ± standard error; for Tumor volume (x ± S): in mm³ (unit assumed)
[3] = Plasma stability test, mouse; type: in vitro ADME; conditions: 5 μM, 37° C.
Experimental: The pH of the plasma was checked and recorded. Note: a.
The final concentration of solvent was 0.5%.
The assay was performed in duplicate. […] The tubes were mixed by vortex for 5 minutes.

[4] = 5 mg/kg, QDx5, 2 days off, 2 weeks off, QDx5, i.p., Day 53
[5] = 5 mg/kg, QWx2, 1 week off, QWx2, i.v., Day 53
[6] = 10 mg/kg, QWx2, 1 week off, QWx2, i.v., Day 53
[7] = Paclitaxel 20 mg/kg, Compound A 2.5, 5, 10 mg/kg

## O=[N+]([O-])c1ccc(C(OP(=O)(N2CC2)N2CC2)C(F)(F)F)cc1Oc1ccc(-c2ccc(F)cc2)c(F)c1 (racemic) [Compound A]
[1]; [4]
  Relative tumor volume (x ± S): 0.99 ± 0.38
  T/C (%): 8.33%
  TGI (%): 91.67%
  Tumor volume (x ± S): 189.84 ± 72.81
[1]; [5]
  Relative tumor volume (x ± S): 0.70 ± 0.34
  T/C (%): 5.92%
  TGI (%): 94.08%
  Tumor volume (x ± S): 136.44 ± 66.47
[1]; 10 mg/kg i.v. (Group 4) and 2.5 mg/kg i.p. (Group 6)
  weight loss or death: did not cause severe weight loss or death
[1]; Day 19
  Tumor volume: 191.97 mm^3
[1]; Day 22
  Tumor volume: 314.32 mm^3
[1]; Day 24
  Tumor volume: 375.81 mm^3
[1]; Day 27
  Tumor volume: 427.75 mm^3
[1]; Day 31
  Tumor volume: 386.68 mm^3
[1]; Day 36
  Tumor volume: 347.85 mm^3
[1]; Day 39
  Tumor volume: 312.31 mm^3
[1]; Day 42
  Tumor volume: 252.78 mm^3
[1]; Day 46
  Tumor volume: 197.45 mm^3
[1]; Day 49
  Tumor volume: 142.21 mm^3
[1]; Day 53
  Tumor volume: 88.20 mm^3
[1]; [6]
  Relative tumor volume (x ± S): 0.45 ± 0.15
  T/C (%): 3.83%
  TGI (%): 96.17%
  Tumor volume (x ± S): 88.20 ± 29.95
[1]; one mouse in each of Groups 3, 4, 7
  complete cure: completely cured
[2]; Compound A 2.5 mg/kg, Day 28
  T/C (%): 57.85%
  TGI (%): 42.15%
  Relative tumor volume (x ± S): 3.47 ± 0.56
  Tumor volume (x ± S): 360.43 ± 44.42
[2]; Compound A 5 mg/kg, Day 28
  T/C (%): 43.62%
  TGI (%): 56.38%
  Relative tumor volume (x ± S): 2.61 ± 0.94
  Tumor volume (x ± S): 291.60 ± 103.85
[2]; Compound A 10 mg/kg, Day 28
  T/C (%): 63.02%
  TGI (%): 36.98%
  Relative tumor volume (x ± S): 3.78 ± 1.19
  Tumor volume (x ± S): 434.80 ± 160.03
[2]; Group 4, Compound A 2.5 mg/kg, Day 0
  Size of tumor volume: 109.86 mm^3
[2]; Group 4, Compound A 2.5 mg/kg, Day 4
  Size of tumor volume: 138.21 mm^3
[2]; Group 4, Compound A 2.5 mg/kg, Day 7
  Size of tumor volume: 177.96 mm^3
[2]; Group 4, Compound A 2.5 mg/kg, Day 11
  Size of tumor volume: 194.38 mm^3
[2]; Group 4, Compound A 2.5 mg/kg, Day 14
  Size of tumor volume: 216.81 mm^3
[2]; Group 4, Compound A 2.5 mg/kg, Day 18
  Size of tumor volume: 261.94 mm^3
[2]; Group 4, Compound A 2.5 mg/kg, Day 21
  Size of tumor volume: 287.79 mm^3
[2]; Group 4, Compound A 2.5 mg/kg, Day 25
  Size of tumor volume: 328.61 mm^3
[2]; Group 4, Compound A 2.5 mg/kg, Day 28
  Size of tumor volume: 360.43 mm^3
[2]; Group 5, Compound A 5 mg/kg, Day 0
  Size of tumor volume: 110.67 mm^3
[2]; Group 5, Compound A 5 mg/kg, Day 4
  Size of tumor volume: 173.28 mm^3
[2]; Group 5, Compound A 5 mg/kg, Day 7
  Size of tumor volume: 221.81 mm^3
[2]; Group 5, Compound A 5 mg/kg, Day 11
  Size of tumor volume: 229.45 mm^3
[2]; Group 5, Compound A 5 mg/kg, Day 14
  Size of tumor volume: 236.47 mm^3
[2]; Group 5, Compound A 5 mg/kg, Day 18
  Size of tumor volume: 260.75 mm^3
[2]; Group 5, Compound A 5 mg/kg, Day 21
  Size of tumor volume: 271.59 mm^3
[2]; Group 5, Compound A 5 mg/kg, Day 25
  Size of tumor volume: 289.40 mm^3
[2]; Group 5, Compound A 5 mg/kg, Day 28
  Size of tumor volume: 291.60 mm^3
[2]; Group 6, Compound A 10 mg/kg, Day 0
  Size of tumor volume: 109.04 mm^3
[2]; Group 6, Compound A 10 mg/kg, Day 4
  Size of tumor volume: 202.09 mm^3
[2]; Group 6, Compound A 10 mg/kg, Day 7
  Size of tumor volume: 257.40 mm^3
[2]; Group 6, Compound A 10 mg/kg, Day 11
  Size of tumor volume: 283.55 mm^3
[2]; Group 6, Compound A 10 mg/kg, Day 14
  Size of tumor volume: 293.14 mm^3
[2]; Group 6, Compound A 10 mg/kg, Day 18
  Size of tumor volume: 343.92 mm^3
[2]; Group 6, Compound A 10 mg/kg, Day 21
  Size of tumor volume: 359.85 mm^3
[2]; Group 6, Compound A 10 mg/kg, Day 25
  Size of tumor volume: 411.01 mm^3
[2]; Group 6, Compound A 10 mg/kg, Day 28
  Size of tumor volume: 434.80 mm^3
[2]; [7]
  tolerability: well tolerated
  tumor inhibitory effect: certain tumor inhibitory effects
[3]
  Percentage remaining after 2 hours in plasma: 38.19%

From patent publication US20260159536A1, “AKR1C3-ACTIVATED DNA ALKYLATING AGENT, AND MEDICAL APPLICATION THEREOF” (ASCENTAWITS PHARMACEUTICALS, LTD., priority 2021, published 2026)
